Patent US20090087845A1, “Genetic Markers Of True Low Birth Weight” (priority 2005, published 2009)
Several values for one entry are separate records, joined by “and”; a condition that tells them apart may be missing. Equal entries are not always repeated.

Test system: placental gene expression
Test: Placental gene expression (Affymetrix Rat Genome Chip 230.2) after SSRI (fluoxetine) exposure throughout gestation
Format: in vivo
Conditions: placenta, SSRI-exposed samples
Protocol: Gene expression data from pregnant rats under different forms of dietary restriction was gathered. […] (N=8) • Group 2 (CR50): Rats Given 50% of their Normal Daily Intake of Food. (N=5) • Group 3 (CR70): Rats Given 70% of their Normal Daily Intake of Food. […] (N=6) Placentas from the rats of each Group were harvested on Day 21 of gestation. RNA was extracted and gene expression was measured based on hybridization of RNA to Affymetrix Rat Genome Chips™ (230.2) (Affymetrix, Santa Clara, Calif.).
In order to determine whether placental gene expression profiling can be used to identify other prenatal exposures such as toxicants and drugs, a group of rats with drug exposure was monitored as described above. […] As with control, CR50, CR70, and HF groups, placentas from the mothers were sampled after 21 days of gestation and gene expression monitored utilizing an Affymetrix Rat Genome Chip.

SMILES: CNCCC(Oc1ccc(C(F)(F)F)cc1)c1ccccc1 (centres unmarked) [fluoxetine, Fluoxetine]
- expression, probeset 1368985_at: 4.725 and 4.454 and 4.646 and 4.715 and 4.588 and 4.472
- expression, probeset 1369005_at: 5.188 and 5.546 and 5.291 and 5.305 and 5.241 and 5.222
- expression, probeset 1369014_at: 4.757 and 5.004 and 4.708 and 4.543 and 4.616 and 4.993
- expression, probeset 1369051_at: 5.588 and 5.207 and 4.835 and 5.011 and 5.144 and 5.186
- expression, probeset 1369192_at: 5.561 and 5.364 and 5.202 and 5.355 and 5.327 and 5.66
- expression, probeset 1369754_a_at: 8.583 and 8.277 and 8.264 and 8.283 and 8.554 and 8.483
- expression, probeset 1369894_at: 3.616 and 3.758 and 3.897 and 3.839 and 4.008 and 3.982
- expression, probeset 1370115_at: 4.967 and 4.917 and 4.824 and 4.622 and 4.818 and 4.719
- expression, probeset 1370260_at: 7.313 and 7.599 and 7.249 and 7.038 and 7.707 and 6.879
- expression, probeset 1370521_at: 8.48 and 8.58 and 8.737 and 8.764 and 8.624 and 8.798
- expression, probeset 1370682_at: 5.579 and 5.507 and 5.51 and 5.944 and 5.574 and 5.843
- expression, probeset 1370688_at: 7.904 and 7.963 and 8.096 and 7.915 and 8.157 and 7.99
- expression, probeset 1370766_at: 4.633 and 4.679 and 4.503 and 4.578 and 4.207 and 4.398
- expression, probeset 1371435_at: 11.53 and 11.47 and 12.47 and 12.43 and 12.2189 and 12.12
- expression, probeset 1371813_at: 6.757 and 6.608 and 7.254 and 7.022 and 6.663 and 6.909
- expression, probeset 1372141_at: 9.643 and 9.597 and 10.34 and 10.39 and 9.957 and 10.19
- expression, probeset 1372462_at: 7.912 and 7.819 and 7.864 and 7.873 and 6.184 and 8.214
- expression, probeset 1372514_s_at: 8.136 and 8.21 and 8.071 and 8.128 and 7.741 and 8.134
- expression, probeset 1372593_at: 7.225 and 7.133 and 7.724 and 8.015 and 7.571 and 7.719
- expression, probeset 1373319_at: 9.595 and 9.441 and 10.05 and 10.11 and 10.07 and 9.901
- expression, probeset 1373396_at: 8.164 and 8.317 and 8.21 and 8.056 and 8.147 and 8.247
- expression, probeset 1373702_at: 7.559 and 7.846 and 7.181 and 7.332 and 7.377 and 7.496
- expression, probeset 1373804_at: 7.894 and 7.963 and 7.858 and 8.12 and 7.699 and 8.068
- expression, probeset 1373925_at: 6.195 and 6.159
- expression, probeset 1374112_at: 7.049 and 6.725 and 6.891 and 7.196 and 7.138 and 6.73
- expression, probeset 1374231_at: 8.494 and 8.998 and 8.117 and 8.316 and 7.948 and 8.466
- expression, probeset 1374656_at: 8.729 and 9.034 and 8.507 and 8.743 and 9.004 and 8.9546
- expression, probeset 1374739_at: 8.348 and 8.65 and 7.424 and 7.76 and 7.662 and 7.815
- expression, probeset 1374807_at: 6.505 and 6.904 and 6.697 and 6.907 and 6.749 and 6.775
- expression, probeset 1375407_at: 4.487 and 4.33 and 4.344 and 4.489 and 4.605 and 4.326
- expression, probeset 1375738_at: 4.993 (2×) and 4.843 and 5.388 and 5.322 and 5.141
- expression, probeset 1376136_at: 5.074 and 4.867 and 4.557 and 4.873 and 4.805 and 4.931
- expression, probeset 1376218_a_at: 4.961 and 5.16 and 4.667 and 4.873 and 4.562 and 4.552
- expression, probeset 1376278_at: 6.191 and 6.405 and 5.934 and 6.175 and 6.205 and 6.006
- expression, probeset 1376289_at: 3.746 and 3.75 and 3.659 and 3.772 and 3.71 and 3.697
- expression, probeset 1376294_at: 7.495 and 7.951 and 7.425 and 7.689 and 7.578 and 7.48
- expression, probeset 1376844_at: 3.958 and 3.92 and 4.036 and 4.211 and 4.082 and 4.214
- expression, probeset 1376852_at: 6.78 and 6.537 and 6.455 and 6.699 and 6.862 and 6.682
- expression, probeset 1377028_at: 5.528 and 5.846 and 5.206 and 5.427 and 5.578 and 5.375
- expression, probeset 1377123_at: 8.958 and 9.069 and 8.729 and 8.819 and 8.853 and 8.789
- expression, probeset 1377210_at: 5.83 and 5.617 and 6.032 and 5.854 and 6.198 and 5.93
- expression, probeset 1377414_at: 7.593
- expression, probeset 1377476_at: 3.935 and 3.899 and 3.84 and 3.865 and 3.998 and 4.107
- expression, probeset 1377621_at: 8.676 and 8.675 and 8.549 and 8.432 and 8.896 and 8.593
- expression, probeset 1377746_at: 6.432 and 6.591 and 6.425 and 6.509 and 6.484 and 6.597
- expression, probeset 1378275_at: 8.581 and 8.43 and 8.773 and 8.828 and 8.515 and 8.555
- expression, probeset 1378318_at: 7.572 and 7.8 and 8.112 and 7.987 and 7.864 and 8.147
- expression, probeset 1378355_a_at: 5.807 and 6.412 and 5.853 and 5.536 and 5.777 and 6.037
- expression, probeset 1378642_at: 6.331 and 6.197 and 6.546 and 6.861 and 6.598 and 6.634
- expression, probeset 1378705_at: 8.279 and 8.34 and 7.828 and 7.561 and 7.947 and 7.98
- expression, probeset 1378872_at: 4.782 and 4.711 and 4.621 and 4.863 and 4.867 and 4.775
- expression, probeset 1378992_at: 3.832 and 3.701 and 3.85 and 3.859 and 3.911 and 3.949
- expression, probeset 1379110_at: 3.965 and 4.036 and 3.739 and 3.917 and 3.886 and 3.804
- expression, probeset 1379140_at: 4.026 and 4.28 and 4.108 and 3.886 and 4.071 and 4.079
- expression, probeset 1379206_at: 6.486 and 6.611 and 6.213 and 6.405 and 6.472 and 6.395
- expression, probeset 1379235_x_at: 7.486 and 7.695 and 7.128 and 7.252 and 7.527 and 7.244
- expression, probeset 1379342_at: 6.297 and 6.3 and 6.275 and 6.188 and 6.259 and 6.187
- expression, probeset 1379408_at: 8.688 and 8.662 and 8.77 and 8.887 and 8.853 and 8.912
- expression, probeset 1379796_at: 5.201 and 4.92 and 5.205 and 5.072 and 5.171 and 5.031
- expression, probeset 1379827_at: 7.897 and 7.85 and 7.7663 and 7.925 and 7.632 and 7.663
- expression, probeset 1379963_at: 6.925 and 7.095 and 7.165 and 7.115 and 7.307 and 7.146
- expression, probeset 1379980_at: 7.864 and 7.817 and 8.195 and 8.083 and 7.784 and 8.003
- expression, probeset 1380152_at: 5.47 and 5.228 and 5.461 and 5.179 and 5.39 and 5.269
- expression, probeset 1380392_at: 6.093 and 5.622 and 5.425 and 5.398 and 5.781 and 5.646
- expression, probeset 1380454_at: 5.81 and 5.871 and 5.693 and 5.717 and 5.721 and 5.875
- expression, probeset 1381074_at: 4.343 and 4.301 and 4.059 and 4.183 and 4.17 and 4.086
- expression, probeset 1381122_at: 5.406 and 5.219 and 5.499 and 5.148 and 5.434 and 5.212
- expression, probeset 1381286_at: 5.261 and 5.374 and 5.297 and 5.034 and 5.316 and 5.389
- expression, probeset 1381483_at: 3.996 and 4.01 and 3.983 and 3.972 and 3.97 and 4.017
- expression, probeset 1381872_at: 6.498 and 7.027 and 7.042 and 6.737 and 6.911 and 6.996
- expression, probeset 1381874_at: 6.734 and 6.453 and 6.457 and 6.588 and 6.285 and 6.523
- expression, probeset 1381941_at: 8.218
- expression, probeset 1381950_at: 3.397 and 3.37 and 3.47 and 3.379 and 3.404
- expression, probeset 1381966_at: 8.36 and 8.855 and 8.774 and 8.518 and 8.76 and 8.757
- expression, probeset 1382015_at: 7.649 and 7.911 and 7.376 and 7.559 and 7.728 and 7.55
- expression, probeset 1382056_at: 8.204 and 7.693 and 8.302 and 8.683 and 9.183 and 8.357
- expression, probeset 1382110_at: 7.206 and 7.183 and 6.692 and 6.852 and 6.784 and 6.862
- expression, probeset 1382513_at: 6.939 and 6.904 and 6.918 and 6.844 and 6.991 and 6.992
- expression, probeset 1382608_at: 5.493 and 5.536 and 5.441 and 5.641 and 5.553 and 5.573
- expression, probeset 1382825_at: 6.303
- expression, probeset 1382932_at: 5.367 and 5.211 and 5.239 and 5.252 and 5.387 and 5.359
- expression, probeset 1383132_at: 5.887 and 6.391 and 5.865 and 5.893 and 5.977 and 5.951
- expression, probeset 1383300_at: 8.422 and 8.732 and 8.861 and 8.982 and 9.071 and 8.854
- expression, probeset 1383309_at: 7.874 and 8.135 and 8.529 and 8.112 and 8.518 and 7.955
- expression, probeset 1383376_at: 6.632 and 7.028 and 7.303 and 6.987 and 6.76 and 6.955
- expression, probeset 1383430_at: 6.213 and 5.851 and 6.754 and 6.641 and 6.446 and 6.508
- expression, probeset 1383443_at: 5.895 and 5.907 and 6.025 and 5.854 and 5.859 and 6.136
- expression, probeset 1383472_at: 3.955 and 3.951 and 3.984 and 4.033 and 3.887 and 3.899
- expression, probeset 1383659_a_at: 5.774 and 5.519 and 5.386 and 5.431 and 4.833 and 6.496
- expression, probeset 1383667_at: 8 and 8.041 and 8.381 and 8.126 and 8.244 and 8.175
- expression, probeset 1383670_at: 7.784 and 7.593 and 7.74 and 7.592 and 7.856 and 7.209
- expression, probeset 1383900_at: 4.742 and 4.617 and 4.606 and 4.705 and 4.749 and 4.765
- expression, probeset 1383984_at: 3.997 and 4.264 and 4.189 and 4.266 and 4.14 and 4.315
- expression, probeset 1384135_at: 7.574 and 7.593 and 7.557 and 7.727 and 7.711 and 7.722
- expression, probeset 1384195_at: 5.325 and 5.826 and 5.609 and 5.355 and 5.716 and 5.368
- expression, probeset 1384374_at: 6.358 and 6.643 and 6.365 and 5.887 and 6.421 and 6.362
- expression, probeset 1384377_at: 7.233 and 7.134 and 7.085 and 7.15 and 7.214 and 7.158
- expression, probeset 1384467_at: 8.34 and 8.507 and 8.418 and 8.058 and 8.062 and 8.234
